The source made the active and inactive calls. The rule behind the calls is not given here.
Experiments:
[1] = Metal chelating activity assessed as Fe2+-compound complex formation at 50 uM after 10 mins by UV-Vis spectroscopic method
[2] = organism: Homo sapiens; assay: Neuroprotective activity against tetracycline removal-induced cytotoxicity in human MC65 cells assessed as reduction in oxidative stress at 0.3 uM after 48 hrs by DCFH-DA dye based fluorescence assay; type: functional, cell-based
[3] = Metal chelating activity assessed as Zn2+-compound complex formation at 50 uM after 10 mins by UV-Vis spectroscopic method
[4] = Metal chelating activity assessed as Cu2+-compound complex formation at 50 uM after 10 mins by UV-Vis spectroscopic method
[5] = Neuroprotective activity against tetracycline removal-induced cytotoxicity in human MC65 cells assessed as increase in cell viability after 72 hrs by MTT assay; type: functional, cell-based; conditions: MC65, 72 h
[6] = organism: Homo sapiens; assay: Neuroprotective activity against tetracycline removal-induced cytotoxicity in human MC65 cells assessed as reduction in oxidative stress at 8 mM after 48 hrs by DCFH-DA dye based fluorescence assay; type: functional, cell-based
[7] = tested on: N2a; assay: Neuroprotective activity in mouse N2A cells assessed as induction of neurite outgrowth at 0.3 uM after 48 hrs by fluorescence microscopic analysis; type: functional, cell-based
[8] = organism: Homo sapiens; assay: Neuroprotective activity against tetracycline removal-induced cytotoxicity in human MC65 cells assessed as reduction in oxidative stress at 32 uM after 48 hrs by DCFH-DA dye based fluorescence assay; type: functional, cell-based

Row | Structure (SMILES) | Activity [1] | Activity [3] | Activity [4] | Activity [2] | EC50 [5] | Activity [6] | Activity [7] | Activity [8]
1 | CC(=O)N[C@@H](CS)C(=O)O |  |  |  |  |  | inactive |  | 
2 | COc1cc(/C=C/C(=O)C(Cc2cn(CCC(=O)NCCCN3CCN(CCCNCCN[C@H]4CC[C@@]5(C)C(=CC[C@H]6[C@@H]7CC[C@H]([C@H](C)CCCC(C)C)[C@@]7(C)CC[C@@H]65)C4)CC3)nn2)C(=O)/C=C/c2ccc(O)c(OC)c2)ccc1O | inactive | inactive | inactive | Active | 23.9 nM |  | inactive | 
3 | Cc1c(C)c2c(c(C)c1O)CCC(C)(C(=O)O)O2 (stereo not drawn) |  |  |  |  |  |  |  | Active
4 | COc1cc(/C=C/C(=O)C(Cc2cn(CCCCNC(=O)CCC(=O)NCCCN3CCN(CCCNCCN[C@H]4CC[C@@]5(C)C(=CC[C@H]6[C@@H]7CC[C@H]([C@H](C)CCCC(C)C)[C@@]7(C)CC[C@@H]65)C4)CC3)nn2)C(=O)/C=C/c2ccc(O)c(OC)c2)ccc1O | inactive | inactive | inactive | Active | 40.6 nM |  |  | 
5 | COc1cc(/C=C/C(=O)C(Cc2cn(CCCCC(=O)NCCCN3CCN(CCCNCCN[C@H]4CC[C@@]5(C)C(=CC[C@H]6[C@@H]7CC[C@H]([C@H](C)CCCC(C)C)[C@@]7(C)CC[C@@H]65)C4)CC3)nn2)C(=O)/C=C/c2ccc(O)c(OC)c2)ccc1O | inactive | inactive | inactive | Active | 21.5 nM |  |  | 
6 | COc1cc(/C=C/C(=O)C(Cc2cn(CCNC(=O)CCC(=O)NCCCN3CCN(CCCNCCN[C@H]4CC[C@@]5(C)C(=CC[C@H]6[C@@H]7CC[C@H]([C@H](C)CCCC(C)C)[C@@]7(C)CC[C@@H]65)C4)CC3)nn2)C(=O)/C=C/c2ccc(O)c(OC)c2)ccc1O | inactive | inactive | inactive | Active | 34.2 nM |  |  | 

Further lines, with some results ahead:

Row | Activity [1] | Activity [3] | Activity [4] | Structure (SMILES) | Activity [2] | EC50 [5] | Activity [6] | Activity [7] | Activity [8]
7 | inactive | inactive | inactive | COc1cc(/C=C/C(=O)C(Cc2cn(CCCCC(=O)NCCCN3CCN(CCCNC(=O)CCN4CCN(CCCN[C@H]5CC[C@@]6(C)C(=CC[C@H]7[C@@H]8CC[C@H]([C@H](C)CCCC(C)C)[C@@]8(C)CC[C@@H]76)C5)CC4)CC3)nn2)C(=O)/C=C/c2ccc(O)c(OC)c2)ccc1O | Active | 64.3 nM |  |  | 
8 | inactive | inactive | inactive | COc1cc(/C=C/C(=O)C(Cc2cn(CCC(=O)NCCCN3CCN(CCCNC(=O)CCC(=O)NCCCN4CCN(CCCNCCN[C@H]5CC[C@@]6(C)C(=CC[C@H]7[C@@H]8CC[C@H]([C@H](C)CCCC(C)C)[C@@]8(C)CC[C@@H]76)C5)CC4)CC3)nn2)C(=O)/C=C/c2ccc(O)c(OC)c2)ccc1O | Active | 33.9 nM |  |  | 
9 | inactive | inactive | inactive | COc1cc(/C=C/C(=O)C(Cc2cn(CCNC(=O)CCC(=O)NCCCN3CCN(CCCNC(=O)CCN4CCN(CCCN[C@H]5CC[C@@]6(C)C(=CC[C@H]7[C@@H]8CC[C@H]([C@H](C)CCCC(C)C)[C@@]8(C)CC[C@@H]76)C5)CC4)CC3)nn2)C(=O)/C=C/c2ccc(O)c(OC)c2)ccc1O | Active | 31.6 nM |  |  | 
10 | inactive | inactive | inactive | COc1cc(/C=C/C(=O)C(Cc2cn(CCCCC(=O)NCCCN3CCN(CCCNC(=O)CCC(=O)NCCCN4CCN(CCCNCCN[C@H]5CC[C@@]6(C)C(=CC[C@H]7[C@@H]8CC[C@H]([C@H](C)CCCC(C)C)[C@@]8(C)CC[C@@H]76)C5)CC4)CC3)nn2)C(=O)/C=C/c2ccc(O)c(OC)c2)ccc1O | Active | 94 nM |  |  | 
11 | inactive | inactive | inactive | COc1cc(/C=C/C(=O)C(Cc2cn(CCCCNC(=O)CCC(=O)NCCCN3CCN(CCCNC(=O)CCN4CCN(CCCN[C@H]5CC[C@@]6(C)C(=CC[C@H]7[C@@H]8CC[C@H]([C@H](C)CCCC(C)C)[C@@]8(C)CC[C@@H]76)C5)CC4)CC3)nn2)C(=O)/C=C/c2ccc(O)c(OC)c2)ccc1O | Active | 30.9 nM |  |  | 
12 | inactive | inactive | inactive | COc1cc(/C=C/C(=O)C(Cc2cn(CCC(=O)NCCCN3CCN(CCCNC(=O)CCN4CCN(CCCN[C@H]5CC[C@@]6(C)C(=CC[C@H]7[C@@H]8CC[C@H]([C@H](C)CCCC(C)C)[C@@]8(C)CC[C@@H]76)C5)CC4)CC3)nn2)C(=O)/C=C/c2ccc(O)c(OC)c2)ccc1O | Active | 33.7 nM |  |  | 

Source: ChEMBL document CHEMBL4184300, “Design and characterization of bivalent compounds as potential neuroprotectants for Alzheimer's disease: Impact of the spacer on biological activity” (Bioorg Med Chem Lett, 2018)
